Patent US12428378B2, “Methods and materials for increasing level of phosphorylated AMPK protein” (University of Pittsburgh—Of the Commonwealth System of …, priority 2019, dated 2025)
Several values for one entry are separate records, joined by “and”; a condition that tells them apart may be missing. Equal values may be shown once. Read-outs that look alike come from different tables or passages of the source.

Key:
[1] = system: methicillin resistant Staphylococcus aureus (strain ATCC 33591); assay: Antimicrobial efficacy against MRSA lung infection in neutropenic BALB/c mice; format: in vivo; conditions: 25 mg/kg orally once a day, days -4 to 0; lungs 24 hours after inoculation; p<0.01 compared to vehicle
Experimental: Groups of 5-10 female BALB/c mice weighing 20±2 g were used in this study. Animals were rendered immune suppressed by treatment with 250 mg/kg of cyclophosphamide IP at 4 and 2 days before infection (Day −4 and −2). Vehicle 10% DMA (N,N-dimethylacetamide):40% PEG300:50% H2O) and/or test substances were administered on days −4, −3, −2, −1 and 0.
On day 0, immediately following the final dose, animals were inoculated intranasally (0.02 mL/lung) with 1-5×10^6 colony forming units (CFU)/mouse of MRSA (ATCC 33591) after being anaesthetized by etomidate (20 mg/kg dose, IV). In addition, following the final dose, blood was collected at 0, 0.5 h, 1 h, 2 h, 4 h and 24 h from three animals of each group, via facial veins. Terminal blood samples were taken by cardiac puncture. Blood samples were drawn into K2EDTA anti-coagulant coated mini collection tubes. The blood was collected from group 1 after sacrifice as the blank for PK analysis. Samples were stored on ice for no more than one hour then centrifuged at 2500×g for 15 min at 4° C. Plasma (˜50 μL) was stored at −80° C. until analysis.
At 24 hours after inoculation, the animals were humanely euthanized with CO2 asphyxiation, and the lung tissue was harvested from each of the test animals. The tissues were homogenized in 1 mL of PBS. […]

pAMPK = pAMPK immunostaining chemiluminescence assay in Beas2B cells; format: cell-based; conditions: Homo sapiens, BEAS-2B, 18 h, DMEM no glucose media, compounds 3-34, 36-44, 47-60 tested as HCl salts, read-out: efficacy (minimal compound concentration needed to increase pAMPK by 30%)
[2] = Plasma exposure and PK of compound 63 in mouse plasma (HPLC-MS/MS); format: in vivo

Sample concentration, individual animals ([2]; 25 mg/kg PO QD x 5, time 0 h, 25 mg/kg): 3 ng/mL and 0 ng/mL (2×) | Sample concentration, individual animals ([2]; 25 mg/kg PO QD x 5, time 0.5 h, 25 mg/kg): 180 ng/mL and 243 ng/mL and 390 ng/mL | Sample concentration, individual animals ([2]; 25 mg/kg PO QD x 5, time 1 h, 25 mg/kg): 95 ng/mL and 120 ng/mL | Sample concentration, individual animals ([2]; 25 mg/kg PO QD x 5, time 2 h, 25 mg/kg): 16 ng/mL and 36 ng/mL and 31 ng/mL | Sample concentration, individual animals ([2]; 25 mg/kg PO QD x 5, time 4 h, 25 mg/kg): 22 ng/mL and 38 ng/mL and 18 ng/mL | Sample concentration, individual animals ([2]; 25 mg/kg PO QD x 5, time 24 h, 25 mg/kg): 7 ng/mL and 0 ng/mL and 3 ng/mL | AUC(0-inf) ([2]; BALB/c, dose PO 25 mg/kg): 622 ng·h/mL | AUC(0-t) ([2]; BALB/c, dose PO 25 mg/kg): 593 ng·h/mL | Cmax ([2]; BALB/c, dose PO 25 mg/kg): 271 ng/mL | Tmax ([2]; BALB/c, dose PO 25 mg/kg): 30 min | concentration at 0 h ([2]; BALB/c, mouse, plasma, po, 25 mg/kg, 25 mg/kg PO QD x 5, time 0 h, excluded from the PK calculation, read-out: Sample concentration, mean): 1 ng/mL | concentration at 0.5 h ([2]; BALB/c, mouse, plasma, po, 25 mg/kg, 25 mg/kg PO QD x 5, time 0.5 h, read-out: Sample concentration, mean): 271 ng/mL | concentration at 1 h ([2]; BALB/c, mouse, plasma, po, 25 mg/kg, 25 mg/kg PO QD x 5, time 1 h, read-out: Sample concentration, individual animals): 184 ng/mL | concentration at 1 h ([2]; BALB/c, mouse, plasma, po, 25 mg/kg, 25 mg/kg PO QD x 5, time 1 h, read-out: Sample concentration, mean): 133 ng/mL | concentration at 2 h ([2]; BALB/c, mouse, plasma, po, 25 mg/kg, 25 mg/kg PO QD x 5, time 2 h, read-out: Sample concentration, mean): 28 ng/mL | concentration at 4 h ([2]; BALB/c, mouse, plasma, po, 25 mg/kg, 25 mg/kg PO QD x 5, time 4 h, read-out: Sample concentration, mean): 26 ng/mL | concentration at 24 h ([2]; BALB/c, mouse, plasma, po, 25 mg/kg, 25 mg/kg PO QD x 5, time 24 h, read-out: Sample concentration, mean): 3 ng/mL | AUC/D ([2]; dose PO 25 mg/kg): 25 kg·ng·h/mL/mg | AUCExtr ([2]; dose PO 25 mg/kg): 5% | MTR ([2]; dose PO 25 mg/kg): 4.96 h
SMILES: Cc1ccccc1CN(CCCOc1ccc(C(F)(F)F)cc1)Cc1cccnc1 [compound 63]
clearance of MRSA from the lung (CFU) [1]: cleared MRSA from the lung | EC (30% increase) (pAMPK): ≤ 1 µM
